Experimental findings from US6034134A, “1-Amino-alkylcyclohexane NMDA receptor antagonists” (Merz + Co. GmbH & Co., priority 1998, dated 2000) are described below.

How the values of series [1] were obtained: All animals were kept with water and food ad libitum under a 12 hour light-dark cycle (light on at 6 a.m.) and at a controlled temperature (20±0.5° C.). All e experiments were performed between 10 a.m. and 5 p.m. Tested agents were injected 30 min. i.p. before the induction of convulsions if not stated otherwise (see below). All compounds were dissolved in 0.9% saline.

The target of the next series is NMDA receptor. Nature of the series: [3H]-(+)-MK-801 binding to rat cortical membranes. The conditions noted are these: for Ki: read-out: MK-801 Ki, Table 9, Cheng-Prusoff with Kd for MK-801 of […]; for IC50: read-out: [3H] MK-801 IC50, Table 7, footnote calls the values Ki. Put shortly:
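Washed cortical membranes from male Sprague-Dawley rats, 250-500 μg/ml protein, incubated in 50 mM Tris-HCl pH 8.0; bound radioligand separated by rapid glass fiber filtration and counted by liquid scintillation.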

The next series deals with cortical neurones. As to the kind of experiment: Excitotoxicity: glutamate toxicity in cultured cortical neurones (MTT). The conditions noted are these: Rattus norvegicus, Cortical neurone. It is filed as cell-based, rat. The method, boiled down:
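Fetal Wistar rat cortical neurones (day 12-14 in culture, astrocyte-conditioned medium) exposed 20 h to 100 μM glutamate plus test drug in serum-free Neurobasal medium. Viability by MTT reduction read at 570 nm; IC50 by four-parameter logistic fit.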

Setting [2] is: Table 7, 100 μM glutamate, 20 h, read-out: Glut. Tox. IC50.
Where [3] appears, read: Table 9, 100 μM glutamate, read-out: Glut Tox IC50.

SMILES strings stand for the structures. Like-named read-outs stand apart in the source and are kept apart here.

In the case of `CC[C@H]1CC(C)(C)C[C@@](C)(N)C1` (relative stereo) [Mrz 2/632], the “Min Lethality” value in series [1] (mouse, in vivo, ip) is reported as above 30 mg/kg. For the same compound, the Ki at NMDA receptor came to 2.88 µM. Also, the half-inhibitory concentration (IC50) turned out to be 2 µM on NMDA receptor, 10.9 µM with cortical neurones (setting [2]) and 11.2 µM with cortical neurones (setting [3]).

For `CC12CC3CC(C)(C1)CC(N)(C3)C2` [Memantine, reference compound], the “Min Lethality” value in series [1] (i.p., minimal lethal dose) is reported as above 108 mg/kg. Moreover, the Ki on NMDA receptor came to 2.45 µM. The IC50 on NMDA receptor was 0.7 µM; with cortical neurones (20 h, read-out: Glut. Tox. IC50), 1.3 µM; in the series on cortical neurones (read-out: Glut Tox IC50) it was 1.4 µM.

Consider `CCC1(CC)CC(C)(C)CC(C)(N)C1` (stereo not drawn) [Mrz 2/623, 1-amino-1,5,5-trimethyl-3,3-diethylcyclohexane], for which the “Min Lethality” value in series [1] (i.p., minimal lethal dose) is recorded as above 30 mg/kg. In addition, on NMDA receptor, the Ki was 3.16 µM. The IC50 came out at 3.3 µM at NMDA receptor, 4.5 µM with cortical neurones (setting [2]) and 4.5 µM with cortical neurones (setting [3]).

In general, Ki refers to a dissociation constant, usually derived from enzyme kinetics or from competition with a known ligand. In general, IC50 refers to the point on the concentration scale where inhibition reaches its midpoint.
